This note sets out measurements from ChEMBL document CHEMBL5678818, “Discovery of potent SOS1 inhibitors that block RAS activation via disruption of the RAS-SOS1 interaction” (Proc Natl Acad Sci U S A, 2019).

In experiment [1] the target is Maternal embryonic leucine zipper kinase (Homo sapiens) (UniProt Q14680). The experiment is described as follows: Inhibition of MELK (unknown origin) assessed as residual activity at 100 nM by KINOMEscan analysis relative to control.
Experiment [2] concerns the target Wee1-like protein kinase 2 (Homo sapiens) (UniProt P0C1S8). Put plainly: Inhibition of WEE2 (unknown origin) assessed as residual activity at 100 nM by KINOMEscan analysis relative to control.
Experiment [3] deals with T1, cGMP-dependent protein kinase 2 (Homo sapiens) (UniProt Q13237).
T1 sequence (whole entry): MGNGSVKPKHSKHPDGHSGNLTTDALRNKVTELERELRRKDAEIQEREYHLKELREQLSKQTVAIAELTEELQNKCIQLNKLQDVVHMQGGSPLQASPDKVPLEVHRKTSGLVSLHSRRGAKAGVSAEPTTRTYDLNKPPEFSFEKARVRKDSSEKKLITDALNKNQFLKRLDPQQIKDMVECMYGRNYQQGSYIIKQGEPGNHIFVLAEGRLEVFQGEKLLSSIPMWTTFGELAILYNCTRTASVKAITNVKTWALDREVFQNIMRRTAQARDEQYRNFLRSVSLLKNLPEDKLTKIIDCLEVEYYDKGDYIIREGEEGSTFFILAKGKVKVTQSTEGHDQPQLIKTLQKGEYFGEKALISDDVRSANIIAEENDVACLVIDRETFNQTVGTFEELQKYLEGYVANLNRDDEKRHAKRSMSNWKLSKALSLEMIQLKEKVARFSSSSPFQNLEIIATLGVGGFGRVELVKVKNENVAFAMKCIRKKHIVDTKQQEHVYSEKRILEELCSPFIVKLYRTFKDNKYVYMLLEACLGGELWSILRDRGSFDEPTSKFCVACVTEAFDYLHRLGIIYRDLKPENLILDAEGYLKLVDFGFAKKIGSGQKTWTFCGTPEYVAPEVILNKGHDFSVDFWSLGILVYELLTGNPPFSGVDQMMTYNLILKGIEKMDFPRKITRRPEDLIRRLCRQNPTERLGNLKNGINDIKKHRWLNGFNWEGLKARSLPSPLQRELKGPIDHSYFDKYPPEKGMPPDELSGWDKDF
Put plainly: Inhibition of PRKG2 (unknown origin) assessed as residual activity at 100 nM by KINOMEscan analysis relative to control.

The target in experiment [4] is T2, Serine/threonine-protein kinase D3 (Homo sapiens) (UniProt O94806).
T2 sequence (whole entry): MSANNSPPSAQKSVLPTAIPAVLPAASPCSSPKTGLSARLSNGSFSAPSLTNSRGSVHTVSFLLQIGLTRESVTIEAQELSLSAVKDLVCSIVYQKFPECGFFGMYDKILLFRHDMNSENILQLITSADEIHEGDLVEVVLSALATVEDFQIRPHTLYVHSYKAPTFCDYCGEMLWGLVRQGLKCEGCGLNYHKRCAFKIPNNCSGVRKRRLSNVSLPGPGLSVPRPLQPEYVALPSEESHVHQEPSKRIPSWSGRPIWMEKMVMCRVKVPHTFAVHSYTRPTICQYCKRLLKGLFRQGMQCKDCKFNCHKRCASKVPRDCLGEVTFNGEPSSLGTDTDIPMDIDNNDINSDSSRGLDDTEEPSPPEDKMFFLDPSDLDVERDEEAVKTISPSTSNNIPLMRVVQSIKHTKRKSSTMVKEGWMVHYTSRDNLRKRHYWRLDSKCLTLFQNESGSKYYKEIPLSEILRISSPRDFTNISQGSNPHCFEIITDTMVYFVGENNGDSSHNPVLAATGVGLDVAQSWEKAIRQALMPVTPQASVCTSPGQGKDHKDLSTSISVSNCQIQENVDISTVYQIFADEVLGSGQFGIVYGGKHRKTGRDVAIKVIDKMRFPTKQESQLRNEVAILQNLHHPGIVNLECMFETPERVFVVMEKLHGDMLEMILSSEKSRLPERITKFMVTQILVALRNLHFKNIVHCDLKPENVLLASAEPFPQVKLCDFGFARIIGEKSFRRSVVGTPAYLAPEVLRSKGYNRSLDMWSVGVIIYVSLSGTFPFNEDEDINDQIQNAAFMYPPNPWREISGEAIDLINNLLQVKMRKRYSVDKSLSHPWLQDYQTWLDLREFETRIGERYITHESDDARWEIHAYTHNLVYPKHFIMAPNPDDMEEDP
Put plainly: Inhibition of PRKD3 (unknown origin) assessed as residual activity at 100 nM by KINOMEscan analysis relative to control.

The target in experiment [5] is T3, Uncharacterized serine/threonine-protein kinase SBK3 (Homo sapiens) (UniProt P0C264).
T3 sequence (whole entry): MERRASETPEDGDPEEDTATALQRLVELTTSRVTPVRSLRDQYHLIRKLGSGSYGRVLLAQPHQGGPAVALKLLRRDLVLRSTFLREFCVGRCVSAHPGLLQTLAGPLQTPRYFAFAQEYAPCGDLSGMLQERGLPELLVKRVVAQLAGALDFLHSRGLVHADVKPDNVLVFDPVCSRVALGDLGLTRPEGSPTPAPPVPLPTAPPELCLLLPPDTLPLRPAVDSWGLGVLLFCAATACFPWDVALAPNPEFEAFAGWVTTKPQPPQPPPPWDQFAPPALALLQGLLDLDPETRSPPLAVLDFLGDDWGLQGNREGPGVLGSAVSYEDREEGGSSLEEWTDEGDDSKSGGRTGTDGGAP
The experiment is described as follows: Inhibition of SgK110 (unknown origin) assessed as residual activity at 100 nM by KINOMEscan analysis relative to control.

Experiment [6] deals with Serine/threonine-protein kinase WNK1 (Homo sapiens) (UniProt Q9H4A3). Put plainly: Inhibition of WNK1 (unknown origin) assessed as residual activity at 100 nM by KINOMEscan analysis relative to control.
In experiment [7] the target is Protein-tyrosine kinase 6 (Homo sapiens) (UniProt Q13882). The experiment is described as follows: Inhibition of BRK (unknown origin) assessed as residual activity at 100 nM by KINOMEscan analysis relative to control.
Experiment [8] has as its target Receptor-type tyrosine-protein kinase FLT3 (Homo sapiens) (UniProt P36888). Put plainly: Inhibition of FLT3 (unknown origin) assessed as residual activity at 100 nM by KINOMEscan analysis relative to control.
For experiment [9], the target named is Serine/threonine-protein kinase 38 (Homo sapiens) (UniProt Q15208). Put plainly: Inhibition of NDR1 (unknown origin) assessed as residual activity at 100 nM by KINOMEscan analysis relative to control.
The target of experiment [10] is Serine/threonine-protein kinase PLK2 (Homo sapiens) (UniProt Q9NYY3). Put plainly: Inhibition of PLK2 (unknown origin) assessed as residual activity at 100 nM by KINOMEscan analysis relative to control.
Sequence of Serine/threonine-protein kinase PLK2 (Homo sapiens) (Q9NYY3 whole entry, looked up): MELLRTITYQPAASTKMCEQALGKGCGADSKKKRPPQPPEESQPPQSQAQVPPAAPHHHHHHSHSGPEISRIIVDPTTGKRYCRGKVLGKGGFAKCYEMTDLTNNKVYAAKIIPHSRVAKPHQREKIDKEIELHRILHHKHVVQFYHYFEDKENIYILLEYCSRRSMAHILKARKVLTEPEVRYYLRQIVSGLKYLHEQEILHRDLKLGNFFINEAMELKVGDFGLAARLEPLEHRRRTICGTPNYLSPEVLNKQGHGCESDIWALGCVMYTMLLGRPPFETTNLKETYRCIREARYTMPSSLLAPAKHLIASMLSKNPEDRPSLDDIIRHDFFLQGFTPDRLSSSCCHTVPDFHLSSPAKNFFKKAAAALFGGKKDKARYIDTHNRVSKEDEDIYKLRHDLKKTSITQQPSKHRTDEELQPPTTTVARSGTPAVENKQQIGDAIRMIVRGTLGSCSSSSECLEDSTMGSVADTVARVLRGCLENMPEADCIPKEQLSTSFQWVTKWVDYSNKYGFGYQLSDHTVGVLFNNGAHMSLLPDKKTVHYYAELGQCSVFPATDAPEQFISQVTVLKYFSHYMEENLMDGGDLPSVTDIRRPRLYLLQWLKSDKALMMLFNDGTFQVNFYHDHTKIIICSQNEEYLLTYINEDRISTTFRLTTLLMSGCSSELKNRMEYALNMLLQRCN

Sequence of Wee1-like protein kinase 2 (Homo sapiens) (P0C1S8 whole entry, looked up): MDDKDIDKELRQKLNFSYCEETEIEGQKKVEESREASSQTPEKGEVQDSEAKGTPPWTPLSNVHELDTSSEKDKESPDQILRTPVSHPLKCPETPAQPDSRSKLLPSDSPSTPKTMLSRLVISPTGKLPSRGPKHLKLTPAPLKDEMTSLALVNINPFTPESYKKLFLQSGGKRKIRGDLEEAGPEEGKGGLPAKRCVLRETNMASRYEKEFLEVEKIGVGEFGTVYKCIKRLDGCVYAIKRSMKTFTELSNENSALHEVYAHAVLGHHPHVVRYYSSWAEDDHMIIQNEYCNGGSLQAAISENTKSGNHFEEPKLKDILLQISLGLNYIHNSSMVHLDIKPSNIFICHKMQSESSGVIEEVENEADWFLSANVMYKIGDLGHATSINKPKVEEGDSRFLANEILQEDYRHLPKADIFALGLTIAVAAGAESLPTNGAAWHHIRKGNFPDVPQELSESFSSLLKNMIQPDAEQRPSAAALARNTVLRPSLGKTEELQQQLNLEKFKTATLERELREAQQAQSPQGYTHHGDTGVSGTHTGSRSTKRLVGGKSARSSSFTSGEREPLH
Sequence of Receptor-type tyrosine-protein kinase FLT3 (Homo sapiens) (P36888 whole entry): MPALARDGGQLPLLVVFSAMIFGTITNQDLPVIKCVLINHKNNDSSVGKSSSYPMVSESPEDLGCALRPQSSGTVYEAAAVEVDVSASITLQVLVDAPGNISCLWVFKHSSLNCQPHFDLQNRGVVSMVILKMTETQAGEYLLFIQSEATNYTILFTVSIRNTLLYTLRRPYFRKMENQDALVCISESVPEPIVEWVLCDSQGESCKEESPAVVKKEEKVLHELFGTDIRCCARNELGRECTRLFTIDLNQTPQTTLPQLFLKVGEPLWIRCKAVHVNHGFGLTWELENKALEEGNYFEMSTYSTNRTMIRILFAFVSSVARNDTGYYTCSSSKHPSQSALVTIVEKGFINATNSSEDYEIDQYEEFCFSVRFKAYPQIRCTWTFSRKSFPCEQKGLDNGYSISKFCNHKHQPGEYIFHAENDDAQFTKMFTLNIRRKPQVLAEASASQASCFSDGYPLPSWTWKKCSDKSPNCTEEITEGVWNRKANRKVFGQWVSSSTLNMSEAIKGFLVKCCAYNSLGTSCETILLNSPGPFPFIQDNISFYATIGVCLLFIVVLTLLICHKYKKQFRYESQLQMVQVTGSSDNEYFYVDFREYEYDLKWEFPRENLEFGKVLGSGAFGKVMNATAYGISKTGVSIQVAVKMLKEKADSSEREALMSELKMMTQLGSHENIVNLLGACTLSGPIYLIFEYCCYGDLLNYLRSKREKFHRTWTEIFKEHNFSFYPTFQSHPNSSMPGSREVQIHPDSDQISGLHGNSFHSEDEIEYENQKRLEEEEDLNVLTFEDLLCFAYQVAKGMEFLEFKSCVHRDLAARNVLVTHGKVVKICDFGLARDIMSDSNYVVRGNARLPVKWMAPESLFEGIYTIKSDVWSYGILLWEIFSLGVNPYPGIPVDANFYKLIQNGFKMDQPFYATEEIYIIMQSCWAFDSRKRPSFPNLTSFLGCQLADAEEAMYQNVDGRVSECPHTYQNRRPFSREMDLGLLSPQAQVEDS
Sequence of Maternal embryonic leucine zipper kinase (Homo sapiens) (Q14680 whole entry, looked up): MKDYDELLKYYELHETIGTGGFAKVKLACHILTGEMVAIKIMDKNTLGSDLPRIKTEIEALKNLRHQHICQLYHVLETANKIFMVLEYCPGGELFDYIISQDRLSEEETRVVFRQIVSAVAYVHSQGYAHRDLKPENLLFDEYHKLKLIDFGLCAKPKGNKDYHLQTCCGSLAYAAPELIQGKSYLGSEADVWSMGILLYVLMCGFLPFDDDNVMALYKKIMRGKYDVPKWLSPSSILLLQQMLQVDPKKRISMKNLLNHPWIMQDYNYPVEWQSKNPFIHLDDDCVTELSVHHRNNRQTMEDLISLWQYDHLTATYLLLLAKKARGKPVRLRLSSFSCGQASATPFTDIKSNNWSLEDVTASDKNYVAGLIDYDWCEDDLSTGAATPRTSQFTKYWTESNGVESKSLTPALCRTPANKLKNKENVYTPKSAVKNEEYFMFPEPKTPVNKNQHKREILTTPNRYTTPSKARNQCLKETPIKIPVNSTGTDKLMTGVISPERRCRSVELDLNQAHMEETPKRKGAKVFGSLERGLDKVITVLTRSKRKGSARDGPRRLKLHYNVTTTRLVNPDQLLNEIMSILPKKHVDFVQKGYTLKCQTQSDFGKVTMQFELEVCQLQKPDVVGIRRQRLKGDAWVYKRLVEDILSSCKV
Sequence of Serine/threonine-protein kinase 38 (Homo sapiens) (Q15208 2-465 limits assumed): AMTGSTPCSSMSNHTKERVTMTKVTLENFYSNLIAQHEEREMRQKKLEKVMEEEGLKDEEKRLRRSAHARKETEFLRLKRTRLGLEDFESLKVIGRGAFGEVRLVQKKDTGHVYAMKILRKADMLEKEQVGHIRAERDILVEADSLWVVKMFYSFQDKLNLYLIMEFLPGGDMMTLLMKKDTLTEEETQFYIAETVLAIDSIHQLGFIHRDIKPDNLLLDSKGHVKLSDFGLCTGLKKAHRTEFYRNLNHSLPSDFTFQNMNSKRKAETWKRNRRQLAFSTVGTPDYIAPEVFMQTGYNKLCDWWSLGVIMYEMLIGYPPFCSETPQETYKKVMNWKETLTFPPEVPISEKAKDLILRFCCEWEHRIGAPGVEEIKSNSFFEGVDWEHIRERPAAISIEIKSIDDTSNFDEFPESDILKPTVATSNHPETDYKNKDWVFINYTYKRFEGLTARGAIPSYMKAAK
Sequence of Protein-tyrosine kinase 6 (Homo sapiens) (Q13882 whole entry, looked up): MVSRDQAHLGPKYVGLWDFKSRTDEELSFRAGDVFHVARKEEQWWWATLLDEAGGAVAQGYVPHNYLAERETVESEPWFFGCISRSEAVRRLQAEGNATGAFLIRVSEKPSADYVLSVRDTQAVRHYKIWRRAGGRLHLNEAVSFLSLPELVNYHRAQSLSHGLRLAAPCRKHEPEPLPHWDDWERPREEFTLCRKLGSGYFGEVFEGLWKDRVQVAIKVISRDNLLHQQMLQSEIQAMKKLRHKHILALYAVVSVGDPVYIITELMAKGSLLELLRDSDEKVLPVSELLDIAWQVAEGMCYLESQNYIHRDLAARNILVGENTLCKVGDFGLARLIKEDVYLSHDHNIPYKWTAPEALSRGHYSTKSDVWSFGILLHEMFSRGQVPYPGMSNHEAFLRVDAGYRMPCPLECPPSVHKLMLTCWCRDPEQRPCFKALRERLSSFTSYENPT

As to `COc1cc2ncnc(N[C@H](C)c3cccc4ccccc34)c2cc1OC`, the Activity in experiment [1] was found to be 73%; in experiment [2] it was 100%; in experiment [3] it was 70%; in experiment [4], 100%; in experiment [5] it was 100%; in [6] it was 83%. The Activity was 80% in experiment [7], 83% in experiment [8], 80% in [9] and 92% in experiment [10].
